Experimental data from PubChem BioAssay (NCI).
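Compound exposure: 48 hours, 5 concentrations, 96-well plates. TGI marks complete inhibition of growth.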

How the values were obtained:
Assay in all cases: NCI-60 cell line screen, 48 h
SN12C renal = system: SN12C renal
SW-620 colon = system: SW-620 colon
NCI-H522 lung = system: NCI-H522 lung
SK-MEL-2 melanoma = system: SK-MEL-2 melanoma
SF-295 CNS = system: SF-295 CNS
HL-60(TB) leukemia = system: HL-60(TB) leukemia
CAKI-1 renal = system: CAKI-1 renal
NCI-H460 lung = system: NCI-H460 lung
KM12 colon = system: KM12 colon
SNB-19 CNS = system: SNB-19 CNS
M19-MEL melanoma = system: M19-MEL melanoma
RPMI-8226 leukemia = system: RPMI-8226 leukemia
LOX IMVI melanoma = system: LOX IMVI melanoma
NCI-H23 lung = system: NCI-H23 lung
A549 NSCLC = system: A549 NSCLC
A498 renal = system: A498 renal
M14 melanoma = system: M14 melanoma
MALME-3M melanoma = system: MALME-3M melanoma
TK-10 renal = system: TK-10 renal
OVCAR-3 ovarian = system: OVCAR-3 ovarian
OVCAR-8 ovarian = system: OVCAR-8 ovarian
DU-145 prostate = system: DU-145 prostate
KM20L2 colon = system: KM20L2 colon
MOLT-4 leukemia = system: MOLT-4 leukemia
HCC-2998 colon = system: HCC-2998 colon
OVCAR-5 ovarian = system: OVCAR-5 ovarian
SF-539 CNS = system: SF-539 CNS
XF 498 CNS = system: XF 498 CNS
COLO 205 colon = system: COLO 205 colon
HOP-92 NSCLC = system: HOP-92 NSCLC
UACC-257 melanoma = system: UACC-257 melanoma
U251 CNS = system: U251 CNS
IGROV1 ovarian = system: IGROV1 ovarian
RXF 393 renal = system: RXF 393 renal
SNB-75 CNS = system: SNB-75 CNS
SK-OV-3 ovarian = system: SK-OV-3 ovarian
UACC-62 melanoma = system: UACC-62 melanoma
HCT-15 colon = system: HCT-15 colon
HCT-116 colon = system: HCT-116 colon
DLD-1 colon = system: DLD-1 colon
SF-268 CNS = system: SF-268 CNS
ACHN renal = system: ACHN renal
HT29 colon = system: HT29 colon
SR leukemia = system: SR leukemia
CCRF-CEM leukemia = system: CCRF-CEM leukemia
SK-MEL-28 melanoma = system: SK-MEL-28 melanoma
UO-31 renal = system: UO-31 renal
786-0 renal = system: 786-0 renal
LXFL 529 NSCLC = system: LXFL 529 NSCLC
NCI-H226 lung = system: NCI-H226 lung
K-562 leukemia = system: K-562 leukemia
OVCAR-4 ovarian = system: OVCAR-4 ovarian
SK-MEL-5 melanoma = system: SK-MEL-5 melanoma
HOP-18 NSCLC = system: HOP-18 NSCLC
SNB-78 CNS = system: SNB-78 CNS
DMS 273 small cell lung = system: DMS 273 small cell lung
EKVX NSCLC = system: EKVX NSCLC
DMS 114 small cell lung = system: DMS 114 small cell lung
HOP-62 NSCLC = system: HOP-62 NSCLC

COC(=O)C1=C(C(=O)OC)C23CC4CCC2(C(=O)C1O3)C4(C)C (stereo unspecified)
TGI (SN12C renal): > 100 µM
TGI (SW-620 colon): > 100 µM
TGI (NCI-H522 lung): 48.8 µM
TGI (SK-MEL-2 melanoma): > 100 µM
TGI (SF-295 CNS): > 100 µM
TGI (HL-60(TB) leukemia): 52.6 µM
TGI (CAKI-1 renal): > 100 µM
TGI (NCI-H460 lung): > 100 µM
TGI (KM12 colon): > 100 µM
TGI (SNB-19 CNS): > 100 µM
TGI (M19-MEL melanoma): > 100 µM
TGI (RPMI-8226 leukemia): > 100 µM
TGI (LOX IMVI melanoma): > 100 µM
TGI (NCI-H23 lung): > 100 µM
TGI (A549 NSCLC): > 100 µM
TGI (A498 renal): > 100 µM
TGI (M14 melanoma): > 100 µM
TGI (MALME-3M melanoma): > 100 µM
TGI (TK-10 renal): > 100 µM
TGI (OVCAR-3 ovarian): > 100 µM
TGI (OVCAR-8 ovarian): > 100 µM
TGI (DU-145 prostate): > 100 µM
TGI (KM20L2 colon): > 100 µM
TGI (MOLT-4 leukemia): > 100 µM
TGI (HCC-2998 colon): > 100 µM
TGI (OVCAR-5 ovarian): > 100 µM
TGI (SF-539 CNS): > 100 µM
TGI (XF 498 CNS): > 100 µM
TGI (COLO 205 colon): > 100 µM
TGI (HOP-92 NSCLC): > 100 µM
TGI (UACC-257 melanoma): > 100 µM
TGI (U251 CNS): > 100 µM
TGI (IGROV1 ovarian): > 100 µM
TGI (RXF 393 renal): > 100 µM
TGI (SNB-75 CNS): > 100 µM
TGI (SK-OV-3 ovarian): > 100 µM
TGI (UACC-62 melanoma): > 100 µM
TGI (HCT-15 colon): > 100 µM
TGI (HCT-116 colon): > 100 µM
TGI (DLD-1 colon): > 100 µM
TGI (SF-268 CNS): > 100 µM
TGI (ACHN renal): > 100 µM
TGI (HT29 colon): > 100 µM
TGI (SR leukemia): > 100 µM
TGI (CCRF-CEM leukemia): 66.7 µM
TGI (SK-MEL-28 melanoma): > 100 µM
TGI (UO-31 renal): > 100 µM
TGI (786-0 renal): > 100 µM
TGI (LXFL 529 NSCLC): > 100 µM
TGI (NCI-H226 lung): > 100 µM
TGI (K-562 leukemia): > 100 µM
TGI (OVCAR-4 ovarian): > 100 µM
TGI (SK-MEL-5 melanoma): > 100 µM
TGI (HOP-18 NSCLC): > 100 µM

Cc1cc(C)c2c(c1)CSCc1cc(C)cc(C)c1-2
TGI (SN12C renal): > 100 µM
TGI (SW-620 colon): > 100 µM
TGI (NCI-H522 lung): 48 µM
TGI (SK-MEL-2 melanoma): 43.9 µM
TGI (SF-295 CNS): 68.3 µM
TGI (HL-60(TB) leukemia): 43.3 µM
TGI (CAKI-1 renal): 76.8 µM
TGI (NCI-H460 lung): 56 µM
TGI (KM12 colon): > 100 µM
TGI (SNB-19 CNS): > 100 µM
TGI (M19-MEL melanoma): 69.2 µM
TGI (RPMI-8226 leukemia): 56.4 µM
TGI (LOX IMVI melanoma): 33.2 µM
TGI (NCI-H23 lung): > 100 µM
TGI (A549 NSCLC): > 100 µM
TGI (A498 renal): 79.9 µM
TGI (M14 melanoma): 91.8 µM
TGI (MALME-3M melanoma): 56.8 µM
TGI (TK-10 renal): > 100 µM
TGI (SNB-78 CNS): 62 µM
TGI (OVCAR-3 ovarian): > 100 µM
TGI (OVCAR-8 ovarian): > 100 µM
TGI (DMS 273 small cell lung): > 100 µM
TGI (KM20L2 colon): > 100 µM
TGI (MOLT-4 leukemia): 41.4 µM
TGI (HCC-2998 colon): > 100 µM
TGI (OVCAR-5 ovarian): > 100 µM
TGI (EKVX NSCLC): 81.9 µM
TGI (COLO 205 colon): 73.3 µM
TGI (UACC-257 melanoma): 74.1 µM
TGI (U251 CNS): 40.5 µM
TGI (IGROV1 ovarian): > 100 µM
TGI (RXF 393 renal): 65.3 µM
TGI (SNB-75 CNS): > 100 µM
TGI (SK-OV-3 ovarian): > 100 µM
TGI (UACC-62 melanoma): > 100 µM
TGI (HCT-15 colon): > 100 µM
TGI (HCT-116 colon): 60.5 µM
TGI (DLD-1 colon): > 100 µM
TGI (SF-268 CNS): > 100 µM
TGI (ACHN renal): > 100 µM
TGI (HT29 colon): 47.1 µM
TGI (SR leukemia): 47.4 µM
TGI (CCRF-CEM leukemia): 45.5 µM
TGI (SK-MEL-28 melanoma): > 100 µM
TGI (UO-31 renal): > 100 µM
TGI (DMS 114 small cell lung): 69.9 µM
TGI (786-0 renal): > 100 µM
TGI (LXFL 529 NSCLC): > 100 µM
TGI (NCI-H226 lung): > 100 µM
TGI (K-562 leukemia): > 100 µM
TGI (OVCAR-4 ovarian): > 100 µM
TGI (SK-MEL-5 melanoma): 65 µM
TGI (HOP-18 NSCLC): > 100 µM
TGI (HOP-62 NSCLC): 69.8 µM

O=S1(=O)[C@H](c2ccccc2)c2c(-c3ccccc3)sc(-c3ccccc3)c2[C@@H]1c1ccccc1
TGI (SN12C renal): > 100 µM
TGI (SW-620 colon): > 100 µM
TGI (NCI-H522 lung): > 100 µM
TGI (SK-MEL-2 melanoma): > 100 µM
TGI (SF-295 CNS): > 100 µM
TGI (HL-60(TB) leukemia): > 100 µM
TGI (CAKI-1 renal): > 100 µM
TGI (NCI-H460 lung): > 100 µM
TGI (KM12 colon): > 100 µM
TGI (SNB-19 CNS): > 100 µM
TGI (M19-MEL melanoma): > 100 µM
TGI (RPMI-8226 leukemia): > 100 µM
TGI (LOX IMVI melanoma): > 100 µM
TGI (NCI-H23 lung): > 100 µM
TGI (A549 NSCLC): > 100 µM
TGI (M14 melanoma): > 100 µM
TGI (MALME-3M melanoma): > 100 µM
TGI (TK-10 renal): > 100 µM
TGI (OVCAR-3 ovarian): > 100 µM
TGI (OVCAR-8 ovarian): > 100 µM
TGI (DMS 273 small cell lung): > 100 µM
TGI (KM20L2 colon): > 100 µM
TGI (MOLT-4 leukemia): > 100 µM
TGI (HCC-2998 colon): > 100 µM
TGI (OVCAR-5 ovarian): > 100 µM
TGI (SF-539 CNS): > 100 µM
TGI (EKVX NSCLC): > 100 µM
TGI (COLO 205 colon): > 100 µM
TGI (HOP-92 NSCLC): > 100 µM
TGI (UACC-257 melanoma): > 100 µM
TGI (U251 CNS): > 100 µM
TGI (IGROV1 ovarian): > 100 µM
TGI (RXF 393 renal): > 100 µM
TGI (SNB-75 CNS): > 100 µM
TGI (SK-OV-3 ovarian): > 100 µM
TGI (UACC-62 melanoma): > 100 µM
TGI (HCT-15 colon): > 100 µM
TGI (DLD-1 colon): > 100 µM
TGI (SF-268 CNS): > 100 µM
TGI (ACHN renal): > 100 µM
TGI (HT29 colon): > 100 µM
TGI (CCRF-CEM leukemia): > 100 µM
TGI (SK-MEL-28 melanoma): > 100 µM
TGI (UO-31 renal): > 100 µM
TGI (DMS 114 small cell lung): > 100 µM
TGI (786-0 renal): > 100 µM
TGI (LXFL 529 NSCLC): > 100 µM
TGI (K-562 leukemia): > 100 µM
TGI (OVCAR-4 ovarian): > 100 µM
TGI (SK-MEL-5 melanoma): > 100 µM
TGI (HOP-18 NSCLC): > 100 µM
TGI (HOP-62 NSCLC): > 100 µM
